From ChEMBL document CHEMBL5518244, “Design, Synthesis, and Biological Evaluation of a Novel NIK Inhibitor with Anti-Inflammatory and Hepatoprotective Effects for Sepsis Treatment” (J Med Chem, 2024)
The source made the active and inactive calls. The rule behind the calls is not given here.

Legend:
Mus musculus [1] = assay: Antisepsis effect in LPS-induced sepsis C57BL/6J mouse model assessed as prevention of liver injury by measuring decrease in serum ALT level at 10 mg/kg, ip measured after 7 days by biochemical assay; assay type: functional, organism-based; details: time 7.0 day
COS-7 [2] = assay: Cytotoxicity against African green monkey COS-7 cells assessed as cell viability at 5 uM by CCK8 assay; assay type: toxicity, cell-based; details: chlorocebus aethiops, cos-7, 5 µM
Mus musculus [3] = assay: Antisepsis effect in LPS-induced sepsis C57BL/6J mouse model assessed as prevention of liver injury by measuring decrease in serum AKP level at 10 mg/kg, ip measured after 7 days by biochemical assay; assay type: functional, organism-based; details: time 7.0 day
[4] = Cmax in C57BL/6J mouse at 10 mg/kg, po measured upto 24 hrs by LC-MS/MS analysis; assay type: ADME, organism-based; details: in vivo
Mus musculus [5] = assay: Antisepsis effect in LPS-induced sepsis C57BL/6J mouse model assessed as prevention of tubular injury at 10 mg/kg, ip measured after 7 days by hematoxylin and eosin staining based assay; assay type: functional, organism-based; details: time 7.0 day
[6] = biological target: AMP-activated protein kinase (AMPK) alpha-1/beta-1/gamma-1 (Homo sapiens, UniProt P54619+Q13131+Q9Y478); assay: Inhibition of AMPKalpha1/beta1/gamma1 (unknown origin) by ADP-Glo Kinase assay; assay type: protein-complex assay
AMP-activated protein kinase (AMPK) alpha-1/beta-1/gamma-1, sequence (P54619 whole entry): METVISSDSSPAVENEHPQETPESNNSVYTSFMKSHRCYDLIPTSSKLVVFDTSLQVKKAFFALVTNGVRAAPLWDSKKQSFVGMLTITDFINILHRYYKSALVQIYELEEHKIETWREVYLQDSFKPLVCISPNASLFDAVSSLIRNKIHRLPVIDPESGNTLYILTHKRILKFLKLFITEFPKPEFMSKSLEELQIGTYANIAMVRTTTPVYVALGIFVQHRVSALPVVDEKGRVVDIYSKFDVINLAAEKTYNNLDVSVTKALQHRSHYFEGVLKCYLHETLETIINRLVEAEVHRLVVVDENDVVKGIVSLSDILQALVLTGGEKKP
AMP-activated protein kinase (AMPK) alpha-1/beta-1/gamma-1, sequence (Q9Y478 whole entry): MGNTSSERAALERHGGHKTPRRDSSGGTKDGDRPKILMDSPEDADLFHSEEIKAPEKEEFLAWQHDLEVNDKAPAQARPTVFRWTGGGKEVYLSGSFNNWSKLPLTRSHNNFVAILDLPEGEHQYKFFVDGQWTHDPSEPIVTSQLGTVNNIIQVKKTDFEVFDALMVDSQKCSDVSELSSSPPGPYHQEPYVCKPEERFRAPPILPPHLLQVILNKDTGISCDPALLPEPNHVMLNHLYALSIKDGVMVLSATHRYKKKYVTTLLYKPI
AMP-activated protein kinase (AMPK) alpha-1/beta-1/gamma-1, sequence (Q13131 whole entry): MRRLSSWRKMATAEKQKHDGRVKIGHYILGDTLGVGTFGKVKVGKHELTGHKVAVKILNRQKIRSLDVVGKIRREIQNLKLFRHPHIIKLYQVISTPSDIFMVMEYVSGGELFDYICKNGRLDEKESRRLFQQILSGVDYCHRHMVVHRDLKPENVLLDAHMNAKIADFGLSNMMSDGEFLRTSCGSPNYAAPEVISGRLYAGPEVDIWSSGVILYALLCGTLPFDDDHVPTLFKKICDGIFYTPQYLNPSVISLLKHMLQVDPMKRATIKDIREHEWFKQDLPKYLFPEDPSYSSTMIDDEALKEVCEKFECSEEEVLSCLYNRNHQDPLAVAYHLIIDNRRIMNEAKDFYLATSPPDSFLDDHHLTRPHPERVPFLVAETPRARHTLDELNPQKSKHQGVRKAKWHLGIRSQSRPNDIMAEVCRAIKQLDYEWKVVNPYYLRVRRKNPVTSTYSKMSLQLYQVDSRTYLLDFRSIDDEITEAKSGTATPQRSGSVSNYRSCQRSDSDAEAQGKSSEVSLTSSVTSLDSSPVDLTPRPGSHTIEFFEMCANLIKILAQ

Mus musculus [7] = assay: Antisepsis effect in LPS-induced sepsis C57BL/6J mouse model assessed as prevention of kidney injury at 10 mg/kg, ip measured after 7 days by hematoxylin and eosin staining based assay; assay type: functional, organism-based; details: time 7.0 day
Mus musculus [8] = assay: Antisepsis effect in LPS-induced sepsis C57BL/6J mouse model assessed as decrease in serum IL-1beta level at 10 mg/kg, ip measured after 7 days by ELISA; assay type: functional, organism-based; details: time 7.0 day
Mus musculus [9] = assay: Antisepsis effect in LPS-induced sepsis C57BL/6J mouse model assessed as protection by measuring mouse survival at 10 mg/kg, ip measured at 48 hrs relative to control; assay type: functional, organism-based
[10] = Metabolic stability in rat liver microsomes assessed as half life at 1 uM measured upto 60 mins by LC-MS/MS analysis; assay type: ADME, Microsome
RAW264.7 [11] = assay: Anti-inflammatory activity in mouse RAW264.7 cells assessed as suppression of LPS/CD40-induced IL-6 secretion at 5 uM pretreated for 2 hrs followed stimulated with LPS/CD40 for 22 hrs by ELISA; assay type: functional, cell-based; details: time 24.0 hrs
Mus musculus [12] = assay: Antisepsis effect in LPS-induced sepsis C57BL/6J mouse model assessed as decrease in serum TNFalpha level at 10 mg/kg, ip measured after 7 days by ELISA; assay type: functional, organism-based; details: time 7.0 day
Mus musculus [13] = assay: Inhibition of noncanonical NF-kappaB signaling pathway LPS-induced sepsis C57BL/6J mouse model assessed as increase in p100 protein level at 10 mg/kg, ip measured after 7 days by immunoblotting analysis; assay type: functional, organism-based; details: time 7.0 day
Mus musculus [14] = assay: Antisepsis effect in LPS-induced sepsis C57BL/6J mouse model assessed as prevention of lung injury at 10 mg/kg, ip measured after 7 days by hematoxylin and eosin staining based assay; assay type: functional, organism-based; details: time 7.0 day
RAW264.7 [15] = assay: Cytotoxicity against mouse RAW264.7 cells assessed as cell viability at 5 uM by CCK8 assay; assay type: toxicity, cell-based; details: raw264.7, 5 µM
RAW264.7 [16] = assay: Anti-inflammatory activity in mouse RAW264.7 cells assessed as suppression of LPS/CD40-induced IL-1beta secretion at 5 uM pretreated for 2 hrs followed stimulated with LPS/CD40 for 22 hrs by ELISA; assay type: functional, cell-based; details: time 24.0 hrs
[17] = biological target: T1, Mitogen-activated protein kinase kinase kinase 14 (Homo sapiens, UniProt Q99558); assay: Inhibition of NIK (unknown origin) expressed in COS-7 cells co-expressing NF-KappaB luciferase reporter assessed as suppression of luciferase reporter measured after 24 by beta-Gal activity assay; assay type: cell-based
Target sequence in this assay (Q99558 whole entry): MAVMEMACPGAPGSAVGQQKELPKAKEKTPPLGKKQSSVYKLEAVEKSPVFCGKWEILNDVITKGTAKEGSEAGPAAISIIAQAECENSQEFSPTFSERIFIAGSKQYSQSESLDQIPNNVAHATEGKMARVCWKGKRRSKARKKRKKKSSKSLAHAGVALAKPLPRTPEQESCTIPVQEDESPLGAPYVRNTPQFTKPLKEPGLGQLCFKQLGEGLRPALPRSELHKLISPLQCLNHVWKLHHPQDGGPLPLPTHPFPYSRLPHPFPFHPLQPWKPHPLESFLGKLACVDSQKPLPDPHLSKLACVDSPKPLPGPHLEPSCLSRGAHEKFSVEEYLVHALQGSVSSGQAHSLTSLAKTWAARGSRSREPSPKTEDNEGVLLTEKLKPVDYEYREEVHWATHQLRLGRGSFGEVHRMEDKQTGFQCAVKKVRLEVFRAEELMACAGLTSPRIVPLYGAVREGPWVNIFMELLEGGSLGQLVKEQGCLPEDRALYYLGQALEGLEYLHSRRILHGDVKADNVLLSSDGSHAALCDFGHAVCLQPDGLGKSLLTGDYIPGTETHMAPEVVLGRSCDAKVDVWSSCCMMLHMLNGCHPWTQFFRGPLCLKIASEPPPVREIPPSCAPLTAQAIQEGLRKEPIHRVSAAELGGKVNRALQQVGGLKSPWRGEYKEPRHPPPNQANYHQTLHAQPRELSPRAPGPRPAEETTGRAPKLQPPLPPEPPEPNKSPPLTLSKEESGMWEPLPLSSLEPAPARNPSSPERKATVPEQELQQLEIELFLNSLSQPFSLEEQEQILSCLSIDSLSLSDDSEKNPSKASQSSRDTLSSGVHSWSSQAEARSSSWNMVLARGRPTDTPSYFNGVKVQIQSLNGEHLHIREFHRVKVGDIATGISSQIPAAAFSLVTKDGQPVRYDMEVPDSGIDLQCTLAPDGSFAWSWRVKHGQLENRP

[18] = AUClast in C57BL/6J mouse at 10 mg/kg, iv measured upto 24 hrs by LC-MS/MS analysis; assay type: ADME, organism-based; details: in vivo
Macrophage = assay: Anti-inflammatory activity in mouse macrophages extracted from abdominal activity assessed as inhibition of LPS-induced nitric oxide production at 1 uM measured after 22 hrs by Griess reagent assay relative to control; assay type: functional, cell-based
[19] = AUClast in C57BL/6J mouse at 10 mg/kg, po measured upto 24 hrs by LC-MS/MS analysis; assay type: ADME, organism-based; details: in vivo
[20] = Metabolic stability in mouse liver microsomes assessed as half life at 1 uM measured upto 60 mins by LC-MS/MS analysis; assay type: ADME, Microsome
Mus musculus [21] = assay: Antisepsis effect in LPS-induced sepsis C57BL/6J mouse model assessed as decrease in serum IL-6 level at 10 mg/kg, ip measured after 7 days by ELISA; assay type: functional, organism-based; details: time 7.0 day
[22] = biological target: Mitogen-activated protein kinase 8 (Homo sapiens, UniProt P45983); assay: Inhibition of JNK1 (unknown origin) by ADP-Glo Kinase assay
Mitogen-activated protein kinase 8, sequence (P45983 whole entry): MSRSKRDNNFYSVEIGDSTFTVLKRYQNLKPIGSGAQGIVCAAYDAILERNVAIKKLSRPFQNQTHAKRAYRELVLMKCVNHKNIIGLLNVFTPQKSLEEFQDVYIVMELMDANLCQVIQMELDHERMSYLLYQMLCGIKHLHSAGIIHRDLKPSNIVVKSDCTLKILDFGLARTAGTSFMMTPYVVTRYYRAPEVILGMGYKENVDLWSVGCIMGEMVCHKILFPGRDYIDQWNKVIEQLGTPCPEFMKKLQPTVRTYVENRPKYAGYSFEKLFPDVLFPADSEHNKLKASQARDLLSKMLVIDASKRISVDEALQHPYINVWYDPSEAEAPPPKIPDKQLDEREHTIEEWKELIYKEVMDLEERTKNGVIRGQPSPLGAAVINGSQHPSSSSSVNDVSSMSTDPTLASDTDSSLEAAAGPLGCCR

Mus musculus [23] = assay: Antisepsis effect in LPS-induced sepsis C57BL/6J mouse model assessed as decrease in serum CXCL-12 level at 10 mg/kg, ip measured after 7 days by ELISA; assay type: functional, organism-based; details: time 7.0 day
[24] = Clearance in C57BL/6J mouse at 10 mg/kg, iv measured upto 24 hrs by LC-MS/MS analysis; assay type: ADME, organism-based; details: in vivo
COS-7 [25] = assay: Cytotoxicity against African green monkey COS-7 cells assessed as cell viability at 1 uM by CCK8 assay; assay type: toxicity, cell-based; details: chlorocebus aethiops, cos-7, 1 µM
RAW264.7 [26] = assay: Cytotoxicity against mouse RAW264.7 cells assessed as cell viability at 1 uM by CCK8 assay; assay type: toxicity, cell-based; details: raw264.7, 1 µM
[27] = AUCinf in C57BL/6J mouse at 10 mg/kg, iv measured upto 24 hrs by LC-MS/MS analysis; assay type: ADME, organism-based; details: in vivo
[28] = biological target: T1, Mitogen-activated protein kinase kinase kinase 14; assay: Inhibition of NIK (unknown origin) incubated 30 to 60 mins by ADP-Glo Kinase
Target sequence in this assay (Q99558 whole entry): as the sequence (Q99558 whole entry) above

Mus musculus [29] = assay: Antisepsis effect in LPS-induced sepsis C57BL/6J mouse model assessed as prevention of infiltration of inflammatory cells at 10 mg/kg, ip measured after 7 days by immunohistochemistry staining of F4/80 imaging based assay; assay type: functional, organism-based; details: time 7.0 day
Mus musculus [30] = assay: Antisepsis effect in LPS-induced sepsis C57BL/6J mouse model assessed as decrease in serum IFN-gamma level at 10 mg/kg, ip measured after 7 days by ELISA; assay type: functional, organism-based; details: time 7.0 day
[31] = Metabolic stability in mouse liver microsomes assessed as intrinsic clearance at 1 uM measured upto 60 mins by LC-MS/MS analysis; assay type: ADME, Microsome; details: read-out: CLH
[32] = AUCinf in C57BL/6J mouse at 10 mg/kg, po measured upto 24 hrs by LC-MS/MS analysis; assay type: ADME, organism-based; details: in vivo
Mus musculus [33] = assay: Antisepsis effect in LPS-induced sepsis C57BL/6J mouse model assessed as protection by measuring mouse survival at 10 mg/kg, ip measured after 7 days relative to control; assay type: functional, organism-based; details: time 7.0 day
[34] = Metabolic stability in rat liver microsomes assessed as intrinsic clearance at 1 uM measured upto 60 mins by LC-MS/MS analysis; assay type: ADME, Microsome; details: read-out: CLH
[35] = Initial plasma concentration in C57BL/6J mouse at 10 mg/kg, iv measured upto 24 hrs by LC-MS/MS analysis; assay type: ADME, organism-based
[36] = Tmax in C57BL/6J mouse at 10 mg/kg, po measured upto 24 hrs by LC-MS/MS analysis; assay type: ADME, organism-based; details: in vivo
Mus musculus [37] = assay: Antisepsis effect in LPS-induced sepsis C57BL/6J mouse model assessed as prevention of necrosis in liver tissue at 10 mg/kg, ip measured after 7 days by hematoxylin and eosin staining based assay; assay type: functional, organism-based; details: time 7.0 day
RAW264.7 [38] = assay: Anti-inflammatory activity in mouse RAW264.7 cells assessed as suppression of LPS/CD40-induced TNFalpha secretion at 5 uM pretreated for 2 hrs followed stimulated with LPS/CD40 for 22 hrs by ELISA; assay type: functional, cell-based; details: time 24.0 hrs
[39] = Half life in C57BL/6J mouse at 10 mg/kg, po measured upto 24 hrs by LC-MS/MS analysis; assay type: ADME, organism-based; details: in vivo
[40] = Half life in C57BL/6J mouse at 10 mg/kg, iv measured upto 24 hrs by LC-MS/MS analysis; assay type: ADME, organism-based; details: in vivo
Mus musculus [41] = assay: Inhibition of noncanonical NF-kappaB signaling pathway LPS-induced sepsis C57BL/6J mouse model assessed as decrease in p52 protein level at 10 mg/kg, ip measured after 7 days by immunoblotting analysis; assay type: functional, organism-based; details: time 7.0 day
Mus musculus [42] = assay: Antisepsis effect in LPS-induced sepsis C57BL/6J mouse model assessed as prevention of liver injury by measuring decrease in serum AST level at 10 mg/kg, ip measured after 7 days by biochemical assay; assay type: functional, organism-based; details: time 7.0 day
[43] = biological target: T1, Mitogen-activated protein kinase kinase kinase 14; assay: Inhibition of NIK (unknown origin) expressed in COS-7 cells co-expressing NF-KappaB luciferase reporter assessed as suppression of luciferase reporter at 5 uM measured after 24 by beta-Gal activity assay; assay type: cell-based
Target sequence in this assay (Q99558 whole entry, looked up): as the sequence (Q99558 whole entry) above

[44] = biological target: T1, Mitogen-activated protein kinase kinase kinase 14; assay: Inhibition of NIK (unknown origin) expressed in COS-7 cells co-expressing NF-KappaB luciferase reporter assessed as suppression of luciferase reporter at 1 uM measured after 24 by beta-Gal activity assay; assay type: cell-based
Target sequence in this assay (Q99558 whole entry, looked up): as the sequence (Q99558 whole entry) above

## COc1cc(Nc2nccc(N3CCCn4nc(C#C[C@@](C)(O)c5nccs5)cc43)n2)cc(OC)c1
Mus musculus [1]
  Activity: Active
COS-7 [2]
  Activity: Non-Toxic
Mus musculus [3]
  Activity: Active
[4]
  Cmax: 1280 ng/mL
Mus musculus [5]
  Activity: Active
[6]
  IC50: 288 µM
Mus musculus [7]
  Activity: Active
Mus musculus [8]
  Activity: Active
Mus musculus [9]
  Activity: Active
[10]
  half-life at 1 µM: 25.9 min
RAW264.7 [11]
  Activity: Active
Mus musculus [12]
  Activity: Active
Mus musculus [13]
  Activity: Active
Mus musculus [14]
  Activity: Active
RAW264.7 [15]
  Activity: Non-Toxic
RAW264.7 [16]
  Activity: Active
[17]
  IC50: 1.19 µM
[18]
  AUC(0-t) at 24 h: 3020 ng·h/mL
Macrophage
  IC50: 78.1 µM
[19]
  AUC(0-t) at 24 h: 2520 ng·h/mL
[20]
  half-life at 1 µM: 19.5 min
Mus musculus [21]
  Activity: Active
[22]
  IC50: 541 µM
Mus musculus [23]
  Activity: Active
[24]
  clearance: 56.2 mL/min/kg
COS-7 [25]
  Activity: Non-Toxic
RAW264.7 [26]
  Activity: Non-Toxic
[27]
  AUC(0-inf): 3020 ng·h/mL
[28]
  IC50: 0.00127 µM
Mus musculus [29]
  Activity: Active
Mus musculus [30]
  Activity: Active
[31]
  microsomal CLint at 1 µM: 71 µL/min/mg
[32]
  AUC(0-inf): 2550 ng·h/mL
Mus musculus [33]
  Activity: Active
[34]
  microsomal CLint at 1 µM: 53.6 µL/min/mg
[35]
  C0 at 24 h: 5060 ng/mL
[36]
  Tmax: 30 min
Mus musculus [37]
  Activity: Active
RAW264.7 [38]
  Activity: Active
[39]
  half-life: 136 min
[40]
  half-life: 44.5 min
Mus musculus [41]
  Activity: Active
Mus musculus [42]
  Activity: Active

## CC(O)(C#Cc1cc2n(n1)CCCN2c1ccnc(NC23CC(C2)C3)n1)c1nccs1 (stereo not drawn)
[43]
  inhibition: Active
[17]
  IC50: 1.51 µM
[44]
  inhibition: Active
Macrophage
  IC50: 16.5 µM
[28]
  IC50: 0.00539 µM

## CC(O)(C#Cc1cc2n(n1)CCCN2c1ccnc(Nc2cccc(C#N)c2)n1)c1nccs1 (stereo not drawn)
[43]
  inhibition: Active
[17]
  IC50: 3.56 µM
[44]
  inhibition: Active
Macrophage
  IC50: 64.1 µM
[28]
  IC50: 0.00501 µM
